What all share (experiment): NCI tumour cell line growth inhibition, 48 h
Assay [1] has as its system SW-620 colon.
Assay [2] deals with 786-0 renal.
The test system of assay [3] is A549 NSCLC.
Assay [4] has as its system SK-MEL-2 melanoma.
Assay [5] has as its system HOP-92 NSCLC.
Assay [6] has as its system LOX IMVI melanoma.
Assay [7] deals with MOLT-4 leukemia.
The test system of assay [8] is RPMI-8226 leukemia.
In assay [9] the test system is OVCAR-5 ovarian.

In PubChem BioAssay (NCI) one finds TGI and GI50 data, which are given here for 23 compounds.

Each structure is given as a SMILES string.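 Compound exposure: 48 hours, 5 concentrations, 96-well plates. Abbreviation: GI50, concentration required for 50% inhibition of growth. TGI: total growth inhibition.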

As to `O=c1cccccc1[O-].O=c1cccccc1[O-].O=c1cccccc1[O-].[La+3]`, the TGI in assay [1] was above 100 µM; in assay [2], 30.4 µM; in assay [3], above 100 µM; in assay [4] it was 48 µM; in assay [5] it was above 100 µM; in assay [6], above 100 µM. For the same compound, the TGI in assay [7], in assay [8] and in [9] was above 100 µM in each case.

Take `N#Cc1cccc(/C=N/N=C(\N)NO)c1`: the TGI in assay [1], in [2], in assay [3], in [4], in [5] and in [6] was above 100 µM each time. This compound registered a TGI in assay [9] above 100 µM.

For `CN1C(=O)C2C(C1=O)C1(O)c3ccccc3C2(N)c2ccccc21` (centres undefined), the TGI in assay [1], in [2], in [3], in [4], in assay [5] and in assay [6] was above 100 µM in each case. Also, the TGI in [7] and in assay [9] was above 100 µM throughout.

As for `CN(C)c1ccc(/C=c2\sc3nc4ccccc4n3c2=O)cc1`, the TGI in assay [1], in assay [2], in assay [3], in assay [4], in assay [5] and in assay [6] was above 100 µM throughout. This compound came in with a TGI in assay [9] above 100 µM.

For `COc1ccc(C2ON(c3cccc(C)n3)CC=C2C)cc1` (centres undefined), the TGI in assay [1] is above 100 µM; in assay [2] it was above 100 µM; in assay [3] it was above 100 µM; in assay [4] it was 69.4 µM; in assay [6] it was above 100 µM; in assay [7] it was above 100 µM. For the same compound, the TGI in [8] and in [9] was above 100 µM in each case.

As to `NC(N)=NS(=O)(=O)c1ccc(NCCc2c3ccccc3nc3ccccc23)cc1`, the TGI in assay [1], in [2], in assay [3], in assay [4], in [5] and in assay [6] was above 100 µM throughout. Moreover, the TGI in assay [7], in assay [8] and in [9] was above 100 µM in each case.

Turning to `CCN(CC)c1ccc(N=Nc2ccc(-c3nc4ccc[n+](C)c4o3)cc2)cc1`, the TGI in assay [1] amounted to 16.2 µM; in assay [2], 23.7 µM; in assay [3], 27.1 µM; in [4] it was 25.5 µM; in [5], 33.4 µM; in assay [6] it was 18.5 µM. Further, the figures for the TGI in assay [7], in assay [8] and in [9] were 16.2 µM, 7.38 µM and 16.3 µM, respectively.

With `NC(N)=NS(=O)(=O)c1ccc(Nc2c3ccccc3nc3c(C(=O)Nc4ccc(S(N)(=O)=O)cc4)cccc23)cc1`, the TGI in assay [1], in assay [2], in [3], in [4], in [5] and in [6] was above 100 µM each time. The TGI in assay [7], in assay [8] and in [9] was above 100 µM each time.

As for `COC(=O)Nc1nc2ccc(Br)cc2[nH]1`, the TGI is above 100 µM in assay [1]; above 100 µM in assay [2]; above 100 µM in assay [3]; 62.6 µM in assay [4]; above 100 µM in assay [5]; above 100 µM in assay [6]. Further, the TGI in assay [7], in [8] and in assay [9] was above 100 µM in each case.

Regarding `COc1ccc(OCC(=O)O)c(C(=O)CCC(=O)O)c1`, the TGI in [1], in [2], in [3], in assay [4], in [5] and in [6] was above 100 µM in each case. For the same compound, the TGI in [7], in assay [8] and in [9] was above 100 µM in each case.

As for `Clc1ccc(C(n2cc(Br)cn2)n2cc(Br)cn2)cc1`, the TGI came to 34.6 µM in assay [1]; 27.8 µM in assay [2]; 32.6 µM in assay [3]; 33.2 µM in assay [4]; 30.6 µM in assay [5]; 47.9 µM in assay [7]. The TGI in assay [8] is 60.2 µM; in assay [9], 29.9 µM.

Turning to `Cc1cc2c(C)nn(Cc3ccc(Cl)cc3)c2c(C#N)c1C`, the TGI in assay [1] was above 100 µM; in [2], above 100 µM; in assay [3], above 100 µM; in [4], above 100 µM; in assay [5] it was 95.1 µM; in assay [8], above 100 µM. The same compound registered a TGI in assay [9] above 100 µM.

For `CC1OC(n2cc(F)c(=O)[nH]c2=O)C=CC1=O` (centres undefined), the TGI in assay [1] was 38.6 µM; in assay [2] it was 29.4 µM; in [3], above 100 µM; in assay [4] it was 28.9 µM; in [5] it was 33.2 µM; in assay [6], 28.7 µM. Further, the figures for the TGI in [7], in assay [8] and in [9] were 69.3 µM, 93.2 µM and 30 µM, respectively.

As for `COc1cccc(NC(=O)/C(Cc2nc3ccccc3nc2C)=N/NC(=O)C[n+]2ccccc2)c1`, the TGI was 25.6 µM in assay [1]; above 100 µM in [2]; above 100 µM in [3]; above 100 µM in assay [4]; above 100 µM in assay [6]; above 100 µM in [7]. For the same compound, the TGI in [8] is 68.1 µM; in [9], above 100 µM.

As for `N#CC1CC2(CCN1C(=O)c1ccccc1)OCCO2` (centres undefined), the TGI in assay [1], in [2], in assay [3], in assay [4], in [5] and in assay [7] was above 100 µM throughout. Further, the TGI in assay [8] and in assay [9] was above 100 µM each time.

`O=Cc1c(O)c(C(=O)Nc2ccc3[nH]c(=O)[nH]c3c2)cc2ccccc12`: the TGI in [1], in assay [2], in assay [3], in assay [4], in assay [5] and in [6] was above 100 µM throughout. The TGI in assay [7], in [8] and in assay [9] was above 100 µM each time.

In the case of `CCOC(=O)c1[nH]c(COC(C)=O)c2c1CCCCCCCCCC2`, the TGI in [1], in [2], in [3], in [4], in assay [5] and in [6] was above 100 µM throughout. In addition, the TGI in [7], in assay [8] and in assay [9] was above 100 µM throughout.

For the compound `COC(C)(C)C/C=C/C(C)=C/C=C/C(C)=C\C=C\C(C)=C\C=C\C=C(C)\C=C\C=C(C)\C=C\C=C(C)\C=C\CC(C)(C)OC`, the GI50 in assay [1], in [2], in assay [3], in [4], in [5] and in [6] was above 150 µg/mL in each case. For the same compound, the GI50 in [7], in assay [8] and in assay [9] was above 150 µg/mL throughout. Besides, the TGI in assay [1], in assay [2], in assay [3], in assay [4], in assay [5] and in assay [6] was above 150 µg/mL throughout. For the same compound, the TGI in assay [7], in assay [8] and in assay [9] was above 150 µg/mL in each case.

For `CN(C)CC/[N+]([O-])=C(/c1ccccc1)C12CC3CC(CC(C3)C1)C2`, the TGI was found to be 26.8 µM in assay [2]; 32.9 µM in [3]; 34.9 µM in assay [4]; 28.8 µM in assay [5]; 31.2 µM in [6]; 34.1 µM in assay [7]. Also, the TGI is 42.7 µM in assay [8] and 32 µM in [9].

With `O=C(NC12CC3CC(CC(C3)C1)C2)C(=O)c1c[nH]c2ccccc12`, the TGI in assay [2] was found to be 25.8 µM; in [3], 30.2 µM; in assay [4], 32.3 µM; in assay [5] it was 28.8 µM; in assay [6], 25.8 µM; in assay [7] it was 43.2 µM. For the same compound, the TGI in assay [8] turned out to be 55.3 µM; in assay [9], 32.1 µM.

With `CC(=O)C1=C(O)CC2CC3c4[nH]c5ccccc5c4CCN3CC2C1` (centres undefined), the TGI in assay [1] is above 100 µM; in [2], above 100 µM; in assay [3] it was above 100 µM; in [4], above 100 µM; in assay [6], above 100 µM; in assay [7], 70.6 µM. Moreover, in assay [9], the TGI was above 100 µM.

On to `O=C(c1ccccc1)c1cn(/N=C\c2ccccc2)c(=O)nc1-c1ccccc1`, for which the TGI in [1], in assay [2], in assay [3], in assay [4], in assay [5] and in assay [6] was above 100 µM each time. The TGI in assay [7] and in [9] was above 100 µM in each case.

Take `C=CCC1C(=O)CC2(C)CC(=O)C(CC=C)C12C` (centres undefined): the TGI in assay [1], in assay [2], in assay [3], in assay [5], in [6] and in assay [7] was above 100 µM in each case. Besides, the TGI in [8] and in assay [9] was above 100 µM throughout.
